The results in this text go back to patent US12643881B2, “Bicyclic amine CDK12 inhibitors” (Incyte Corporation, priority 2021, dated 2026).

T1 sequence (Q9NYV4 whole entry): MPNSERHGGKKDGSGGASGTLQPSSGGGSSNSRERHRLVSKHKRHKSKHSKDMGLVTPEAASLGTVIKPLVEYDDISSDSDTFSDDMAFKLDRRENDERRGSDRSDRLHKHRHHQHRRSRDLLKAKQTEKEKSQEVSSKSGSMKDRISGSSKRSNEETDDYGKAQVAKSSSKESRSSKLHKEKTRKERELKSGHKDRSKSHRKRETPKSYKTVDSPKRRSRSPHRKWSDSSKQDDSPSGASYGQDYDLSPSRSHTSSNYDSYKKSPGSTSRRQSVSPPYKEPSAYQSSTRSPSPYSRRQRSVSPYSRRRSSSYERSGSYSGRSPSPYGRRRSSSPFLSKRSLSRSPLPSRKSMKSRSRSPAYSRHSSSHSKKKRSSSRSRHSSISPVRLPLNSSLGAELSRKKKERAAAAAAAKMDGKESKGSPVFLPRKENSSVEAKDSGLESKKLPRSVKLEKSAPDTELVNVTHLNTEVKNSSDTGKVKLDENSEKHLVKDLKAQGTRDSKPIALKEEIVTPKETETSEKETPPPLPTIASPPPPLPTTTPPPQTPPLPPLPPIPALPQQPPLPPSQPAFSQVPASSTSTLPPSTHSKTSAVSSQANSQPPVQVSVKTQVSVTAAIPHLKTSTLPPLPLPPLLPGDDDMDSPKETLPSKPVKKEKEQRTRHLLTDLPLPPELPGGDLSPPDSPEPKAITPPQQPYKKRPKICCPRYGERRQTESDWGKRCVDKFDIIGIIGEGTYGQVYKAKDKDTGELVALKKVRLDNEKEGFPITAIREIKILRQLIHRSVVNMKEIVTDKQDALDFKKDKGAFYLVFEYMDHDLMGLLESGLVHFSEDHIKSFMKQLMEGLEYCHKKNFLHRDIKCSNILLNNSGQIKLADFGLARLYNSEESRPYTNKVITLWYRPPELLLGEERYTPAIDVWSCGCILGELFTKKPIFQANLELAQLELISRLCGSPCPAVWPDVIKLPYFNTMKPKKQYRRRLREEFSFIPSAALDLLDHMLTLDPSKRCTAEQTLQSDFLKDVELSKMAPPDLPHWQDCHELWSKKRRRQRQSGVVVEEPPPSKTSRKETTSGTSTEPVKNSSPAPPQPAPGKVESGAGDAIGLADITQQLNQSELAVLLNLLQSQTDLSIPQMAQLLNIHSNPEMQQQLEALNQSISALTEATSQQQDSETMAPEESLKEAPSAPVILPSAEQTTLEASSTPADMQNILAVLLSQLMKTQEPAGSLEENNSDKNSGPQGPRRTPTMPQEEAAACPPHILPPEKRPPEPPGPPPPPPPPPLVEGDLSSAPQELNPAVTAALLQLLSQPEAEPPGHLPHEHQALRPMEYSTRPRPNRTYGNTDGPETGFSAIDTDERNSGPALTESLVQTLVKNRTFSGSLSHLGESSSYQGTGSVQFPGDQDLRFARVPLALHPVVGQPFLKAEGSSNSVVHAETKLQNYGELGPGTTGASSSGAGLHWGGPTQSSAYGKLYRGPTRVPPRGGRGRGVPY
T1 sequence (O75909 whole entry partner): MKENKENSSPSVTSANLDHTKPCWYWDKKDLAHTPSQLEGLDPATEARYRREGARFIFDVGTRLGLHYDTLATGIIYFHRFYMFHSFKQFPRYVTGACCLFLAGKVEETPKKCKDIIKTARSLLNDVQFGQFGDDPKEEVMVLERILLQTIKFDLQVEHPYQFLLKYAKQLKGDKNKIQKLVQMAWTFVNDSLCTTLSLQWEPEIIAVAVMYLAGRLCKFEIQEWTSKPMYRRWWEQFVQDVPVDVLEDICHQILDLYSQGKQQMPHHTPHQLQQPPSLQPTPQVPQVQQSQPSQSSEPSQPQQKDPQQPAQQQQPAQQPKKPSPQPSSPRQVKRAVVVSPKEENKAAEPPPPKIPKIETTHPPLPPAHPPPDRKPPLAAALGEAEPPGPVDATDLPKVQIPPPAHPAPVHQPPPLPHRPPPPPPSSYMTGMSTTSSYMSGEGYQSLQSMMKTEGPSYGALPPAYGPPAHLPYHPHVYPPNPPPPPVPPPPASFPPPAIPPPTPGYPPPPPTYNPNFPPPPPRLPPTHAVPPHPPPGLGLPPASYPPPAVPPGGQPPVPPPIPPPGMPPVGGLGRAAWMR

This assay concerns the target T1, CDK12 complexed with Cyclin K (Homo sapiens, UniProt Q9NYV4).
T1 construct: GST (N)
The experiment in a line: Alternative CDK Enzymatic Assays (HTRF, pre-incubation with compounds and 1 mM ATP), Example A2. In kind it is biochemical. The following applies: enzyme pre-incubated with compounds and 1 mM ATP for 60 minutes; reaction 120 minutes at 25° C. The text has this:
Example A2. Alternative CDK Enzymatic Assays
The following activity of the CDK enzymes in complex with their respective cyclins we assayed: CDK1 complexed with Cyclin B1; CDK2 complexed with Cyclin E1; CDK4 complexed with Cyclin D1; CDK6 complexed with Cyclin D1; CDK6 complexed with Cyclin D3; CDK9 complexed with Cyclin T1; CDK7 complexed with Cyclin H/MAT1; CDK2 complexed with Cyclin A2; CDK5 complexed with p35; CDK12 complexed with Cyclin K; CDK13 complexed with Cyclin K. These in vitro enzyme activity are assayed using homogeneous time-resolved energy transfer (HTRF), which measures phosphorylation of a peptide substrate. The LANCER Ultra kinase assay (PerkinElmer) uses a ULight™-labeled EIF4E-binding protein 1 (THR37/46) peptide (DYSTTPGGTLFSTTPGTRI (SEQ ID NO: 1)) substrate and a Europium-labeled anti-phospho-4E-BP1 antibody (CDK2, CDK1, CDK4, CDK6, CDK9, CDK12, CDK13) or ULight™-labeled Myelin Basic Protein peptide (VTPRTPPP (SEQ ID NO: 2)) substrate and a Europium-labeled anti-phospho-MBP antibody (CDK7). Each CDK enzyme activity assays utilized human CDK co-expressed as N-terminal GST-tagged protein with its full length cyclin partner using a baculovirus expression system.
Enzyme was pre-incubated with compounds and 1 mM ATP for 60 minutes (CDK 1, 2, 4, 6, 9, 7, 12, 13) prior to the addition of ATP and Ulight-peptide (1 mM and 50 nM final, respectively), in assay buffer containing 50 mM HEPES pH 7.5, 1 mM EGTA, 10 mM MgCl2, 2 mM DTT, 0.05 mg/mL BSA, and 0.01% Tween 20. The reaction was then incubated for 120 minutes at 25° C. incubator. The reactions were stopped by the addition of EDTA and Europium labeled antibody, for a final concentration of 15 mM and 0.5-1.5 nM, respectively. HTRF signals were read after 15-120 minutes. A ratio of fluorescence transferred to the labeled substrate (665 nm) relative to fluorescence of the Europium donor (620 nm) represents the extent of phosphorylation. Ratios for treated wells were normalized to DMSO only (100% activity) and no enzyme (0% activity) controls. Normalized data was analyzed using a three or four parameter dose response curve to determine IC50 for each compound and are shown in Table B. Control reference inhibitors were included on each plate.
For `C=CC(=O)Nc1cc2nc(N3C[C@H](F)C[C@@H](Nc4ncc(C(F)(F)F)cn4)C3)n(C)c2cc1Br` [Example 141, N-(6-Bromo-2-((3R,5R)-3-fluoro-5-((5-(trifluoromethyl)pyrimidin-2-yl)amino)piperidin-1-yl)-1-methyl-1H-benzo[d]imidazol-5-yl)acrylamide], the IC50 is < 50 nM.

Consider `C=CC(=O)Nc1ccc2c(c1)nc(N1CCC[C@@H](Nc3ncc(C#N)c(N4CC[C@@H](N(C)C)C4)n3)C1)n2C` [Example 142, N-(2-((R)-3-((5-cyano-4-((R)-3-(dimethylamino)pyrrolidin-1-yl)pyrimidin-2-yl)amino)piperidin-1-yl)-1-methyl-1H-benzo[d]imidazol-5-yl)acrylamide], for which the IC50 is < 50 nM.

Turning to `C=CC(=O)Nc1ccc2c(c1)nc(N1CCC[C@@H](Nc3ncc(C#N)cn3)C1)n2C` [Example 143, (R)—N-(2-(3-((5-Cyanopyrimidin-2-yl)amino)piperidin-1-yl)-1-methyl-1H-benzo[d]imidazol-5-yl)acrylamide], the IC50 is < 50 nM.

For `C=CC(=O)Nc1c(C)cc2c(nc(N3C[C@H](F)C[C@@H](Nc4ncc(C(F)(F)F)cn4)C3)n2C)c1C` [Example 144, N-(2-((3R,5R)-3-Fluoro-5-((5-(trifluoromethyl)pyrimidin-2-yl)amino)piperidin-1-yl)-1,4,6-trimethyl-1H-benzo[d]imidazol-5-yl)acrylamide], the IC50 is > 500 nM.

Regarding `C=CC(=O)Nc1c(C)cc2c(nc(N3C[C@H](F)C[C@@H](Nc4ncc(C#N)cn4)C3)n2C)c1Br` [Example 145, N-(4-Bromo-2-((3R,5R)-3-((5-cyanopyrimidin-2-yl)amino)-5-fluoropiperidin-1-yl)-1,6-dimethyl-1H-benzo[d]imidazol-5-yl)acrylamide], the IC50 fell in the range of 50 to 500 nM.

`C=CC(=O)Nc1c(C)cc2c(nc(N3C[C@H](F)C[C@@H](Nc4ncc(C(F)(F)F)cn4)C3)n2C)c1Br` [Example 146, N-(4-Bromo-2-((3R,5R)-3-fluoro-5-((5-(trifluoromethyl)pyrimidin-2-yl)amino)piperidin-1-yl)-1,6-dimethyl-1H-benzo[d]imidazol-5-yl)acrylamide]: the IC50 was in the range of 50 to 500 nM.

Take `C=CC(=O)Nc1cc2nc(N3C[C@H](O)C[C@@H](Nc4ncc(C#N)cn4)C3)n(C)c2cc1C` [Example 147, N-(2-((3R,5R)-3-((5-Cyanopyrimidin-2-yl)amino)-5-hydroxypiperidin-1-yl)-1,6-dimethyl-1H-benzo[d]imidazol-5-yl)acrylamide]: the IC50 was in the range of 50 to 500 nM.

Regarding `C=CC(=O)Nc1cc2nc(N3CC[C@@H](O)[C@@H](Nc4ncc(C(F)(F)F)cn4)C3)n(C)c2cc1C` [Example 148, N-(2-((3S,4R)-4-Hydroxy-3-((5-(trifluoromethyl)pyrimidin-2-yl)amino)piperidin-1-yl)-1,6-dimethyl-1H-benzo[d]imidazol-5-yl)acrylamide], the IC50 was > 500 nM.

On to `C=CC(=O)Nc1cc2nc(N3CC[C@H](O)[C@@H](Nc4ncc(C(F)(F)F)cn4)C3)n(C)c2cc1C` [Example 149, N-(2-((3S,4S)-4-Hydroxy-3-((5-(trifluoromethyl)pyrimidin-2-yl)amino)piperidin-1-yl)-1,6-dimethyl-1H-benzo[d]imidazol-5-yl)acrylamide], for which the IC50 was > 500 nM.

As for `C=CC(=O)Nc1cc2nc(N3CCC[C@@H](Nc4ncc(C(F)(F)F)cn4)C3)n(C)c2cc1C1CC1` [Example 150, (R)—N-(6-Cyclopropyl-1-methyl-2-(3-((5-(trifluoromethyl)pyrimidin-2-yl)amino)piperidin-1-yl)-1H-benzo[d]imidazol-5-yl)acrylamide], the IC50 was < 50 nM.

For `C=CC(=O)Nc1ccc2c(c1)nc(N1CCC[C@@H](Nc3cc(OC)c(C#N)cn3)C1)n2C` [Example 151, (R)—N-(2-(3-((5-Cyano-4-methoxypyridin-2-yl)amino)piperidin-1-yl)-1-methyl-1H-benzo[d]imidazol-5-yl)acrylamide], the IC50 was < 50 nM.

Regarding `C=CC(=O)Nc1ccc2c(c1)nc(N1CCC[C@@H](Nc3ncc(C(F)(F)F)c(N4CCN(C)CC4)n3)C1)n2C` [Example 152, (R)—N-(1-Methyl-2-(3-((4-(4-methylpiperazin-1-yl)-5-(trifluoromethyl)pyrimidin-2-yl)amino)piperidin-1-yl)-1H-benzo[d]imidazol-5-yl)acrylamide], the IC50 was < 50 nM.

As to `C=CC(=O)Nc1cc2nc(N3CCC[C@@H](Nc4ncc(C(F)(F)F)cn4)C3)n(C)c2cc1CC` [Example 153, (R)—N-(6-Ethyl-1-methyl-2-(3-((5-(trifluoromethyl)pyrimidin-2-yl)amino)piperidin-1-yl)-1H-benzo[d]imidazol-5-yl)acrylamide], the IC50 is < 50 nM.

Take `C=CC(=O)Nc1cc2nc(N3CCC[C@@H](Nc4ncc(C(F)(F)F)cn4)C3)n(C)c2cc1C(C)C` [Example 154, (R)—N-(6-Isopropyl-1-methyl-2-(3-((5-(trifluoromethyl)pyrimidin-2-yl)amino)piperidin-1-yl)-1H-benzo[d]imidazol-5-yl)acrylamide]: the IC50 was < 50 nM.

In the case of `C=CC(=O)Nc1c(C(C)C)cc2c(nc(N3CCC[C@@H](Nc4ncc(C(F)(F)F)cn4)C3)n2C)c1C` [Example 155, (R)—N-(6-Isopropyl-1,4-dimethyl-2-(3-((5-(trifluoromethyl)pyrimidin-2-yl)amino)piperidin-1-yl)-1H-benzo[d]imidazol-5-yl)acrylamide], the IC50 was < 50 nM.

With `C=CC(=O)Nc1ccc2c(nc(N3CCC[C@@H](Nc4ncc(C(F)(F)F)cn4)C3)n2C)c1C` [Example 156, (R)—N-(1,4-Dimethyl-2-(3-((5-(trifluoromethyl)pyrimidin-2-yl)amino)piperidin-1-yl)-1H-benzo[d]imidazol-5-yl)acrylamide], the IC50 is < 50 nM.

Regarding `C=CC(=O)Nc1cc2nc(N3C[C@H](F)C[C@@H](Nc4ncc(C#N)c(N(C)C)n4)C3)n(C)c2cc1C` [Example 157, N-(2-((3R,5R)-3-((5-Cyano-4-(dimethylamino)pyrimidin-2-yl)amino)-5-fluoropiperidin-1-yl)-1,6-dimethyl-1H-benzo[d]imidazol-5-yl)acrylamide], the IC50 fell in the range of 50 to 500 nM.

Consider `C=CC(=O)Nc1cc2nc(N3C[C@H](F)C[C@@H](Nc4ncc(C#N)c(NC)n4)C3)n(C)c2cc1C` [Example 158, N-(2-((3R,5R)-3-((5-Cyano-4-(methylamino)pyrimidin-2-yl)amino)-5-fluoropiperidin-1-yl)-1,6-dimethyl-1H-benzo[d]imidazol-5-yl)acrylamide], for which the IC50 was < 50 nM.

With `C=CC(=O)Nc1cc2nc(N3C[C@H](F)C[C@@H](Nc4ccc(C(F)(F)F)cn4)C3)n(C)c2cc1C` [Example 159], the IC50 was in the range of 50 to 500 nM.

For the molecule `C=CC(=O)Nc1cc2nc(N3C[C@H](F)C[C@@H](Nc4ncc(C(F)F)cn4)C3)n(C)c2cc1C` [Example 160, N-(2-((3R,5R)-3-((5-(Difluoromethyl)pyrimidin-2-yl)amino)-5-fluoropiperidin-1-yl)-1,6-dimethyl-1H-benzo[d]imidazol-5-yl)acrylamide], the half-inhibitory concentration (IC50) was 50 to 500 nM.

With `C=CC(=O)Nc1cc2nc(N3C[C@H](F)C[C@@H](Nc4ncc(C#N)c(CC)n4)C3)n(C)c2cc1C` [Example 161, N-(2-((3R,5R)-3-((5-Cyano-4-ethylpyrimidin-2-yl)amino)-5-fluoropiperidin-1-yl)-1,6-dimethyl-1H-benzo[d]imidazol-5-yl)acrylamide], the IC50 is < 50 nM.

By IC50 is commonly meant the point on the concentration scale where inhibition reaches its midpoint.
